Test results taken from patent US20100160442A1, “FORMULATIONS FOR CANCER TREATMENT” (priority 2006, published 2010).
Values after ≈ are worked out from the molar mass of the structure shown. Read-outs that look alike come from different tables or passages of the source.

Test: Equilibrium solubility of 4-iodo-3-nitrobenzamide, overnight at 25° C., measured by HPLC
Assay type: physicochemical
Settings: for solubility: thermodynamic from solid, read-out: Solubility
Description: Excess 4-iodo-3-nitrobenzamide (“BA”) was equilibrated overnight (>16 hr) at 25° C. in purified water, 0.01M HCl (pH2), 0.01M NaOH ([…]), and 0.9% NaCl. Following dilution, the solubility of the drug was measured by HPLC.
Excess 4-iodo-3-nitrobenzamide was equilibrated overnight (>16 hr) at 25° C. in solutions of purified water containing various concentrations of cyclodextrins including hydroxypropyl-β-cyclodextrin (Kleptose® from Roquette) (HPBCD), sulfobutyl ether-β-cyclodextrin (Captisol® from Cyclex) (SBEBCD), and Hyroxypropyl-γ-cyclodextrin (Cavamax W8® from Wacker) (HPGCD). Following dilution, the solubility of the drug was measured by HPLC.
Excess 4-iodo-3-nitrobenzamide was equilibrated overnight (>16 hr) at 25° C. in purified water containing various concentrations of the surfactants: polyethylene sorbitan monooleate (Polysorbate 80), polyoxyethylene sorbitan monolaurate (Polysorbate 20), Cremophor EL (BASF), Cremophor RH40 (BASF), Poloxamer 118, and Solutol HS-15 (BASF). Following dilution, the solubility of the drug was measured by HPLC.
Excess 4-iodo-3-nitrobenzamide was equilibrated overnight (>16 hr) at 25° C. in solutions of purified water containing various co-solvents including ethanol, glycofurol, glycerin formal, benzyl alcohol, N,N, dimethylacetamide (DMA), polyethylene glycol (PEG) 400, and propylene glycol. Following dilution, the solubility of the drug was measured by HPLC.
Excess 4-iodo-3-nitrobenzamide was equilibrated overnight (>16 hr) at 25° C. in solutions in purified water containing mixtures of solubilizers. Following dilution, the solubility of the drug was measured by HPLC.

solubility (0.01 M HCl, 25 °C, pH 2, simulated gastric fluid, 0.01 M HCl (pH 2), 25° C.): 179 µg/mL (≈ 0.613 mM)
solubility (0.01 M NaOH, 25 °C, pH 13, aqueous buffer, 0.01M NaOH (pH 13), 25° C.): 181 µg/mL (≈ 0.62 mM)
solubility (0.9% NaCl, 25 °C, saline or isotonic, 0.9% NaCl, 25° C.): 164 µg/mL (≈ 0.562 mM)
solubility (5% DMA (N,N-dimethylacetamide) in purified water, 25 °C, aqueous with cosolvent or surfactant or cyclodextrin, DMA 5%, 25° C.): 1390 µg/mL (≈ 4.76 mM)
Enhancement (5% DMA/5% EtOH/40% PEG 400): 44.0
solubility (5% DMA/5% EtOH/40% PEG 400 in purified water, 25 °C, aqueous with cosolvent or surfactant or cyclodextrin, 5% DMA/5% EtOH/40% PEG 400, 25° C.): 8010 µg/mL (≈ 27.4 mM)
Enhancement (5% DMA/25% Solutol HS-15): 45.7
solubility (5% DMA/25% Solutol HS-15 in purified water, 25 °C, aqueous with cosolvent or surfactant or cyclodextrin, 5% DMA/25% Solutol HS-15, 25° C.): 8320 µg/mL (≈ 28.5 mM)
Enhancement (5% DMA/40% PEG 400): 33.2
solubility (5% DMA/40% PEG 400 in purified water, 25 °C, aqueous with cosolvent or surfactant or cyclodextrin, 5% DMA/40% PEG 400, 25° C.): 6050 µg/mL (≈ 20.7 mM)
Enhancement (5% Polysorbate 20/5% ETOH): 12.1
solubility (5% Polysorbate 20/5% ethanol in purified water, 25 °C, aqueous with cosolvent or surfactant or cyclodextrin, 5% Polysorbate 20/5% ETOH, 25° C.): 2210 µg/mL (≈ 7.57 mM)
Enhancement (5% Polysorbate 20/5% glycofurol): 11.0
solubility (5% Polysorbate 20/5% glycofurol in purified water, 25 °C, aqueous with cosolvent or surfactant or cyclodextrin, 5% Polysorbate 20/5% glycofurol, 25° C.): 2000 µg/mL (≈ 6.85 mM)
Enhancement (5% Polysorbate 80/5% ETOH): 12.3
solubility (5% Polysorbate 80/5% ethanol in purified water, 25 °C, aqueous with cosolvent or surfactant or cyclodextrin, 5% Polysorbate 80/5% ETOH, 25° C.): 2230 µg/mL (≈ 7.64 mM)
Enhancement (5% Polysorbate 80/5% glycofurol): 13.1
solubility (5% Polysorbate 80/5% glycofurol in purified water, 25 °C, aqueous with cosolvent or surfactant or cyclodextrin, 5% Polysorbate 80/5% glycofurol, 25° C.): 2390 µg/mL (≈ 8.18 mM)
Enhancement (5% Polysorbate 80/10% EtOH/40% PEG 400): 6.7
solubility (5% glucose (5GW), 25 °C, saline or isotonic, 5% Glucose (5GW), 25° C.): 173 µg/mL (≈ 0.592 mM)
solubility (10% Cremophor EL in purified water, 25 °C, aqueous with cosolvent or surfactant or cyclodextrin, Cremophor EL 10%, 25° C.): 3500 µg/mL (≈ 12 mM)
solubility (10% Cremophor RH40 in purified water, 25 °C, aqueous with cosolvent or surfactant or cyclodextrin, Cremophor RH40 10%, 25° C.): 3370 µg/mL (≈ 11.5 mM)
Enhancement (10% EtOH/10% Polysorbate 80): 11.5
Enhancement (10% EtOH/40% PEG 400): 18.8
Enhancement (10% EtOH/40% PEG 400,/5% Benzyl Alcohol): 17.1
solubility (10% HPBCD in purified water, 25 °C, aqueous with cosolvent or surfactant or cyclodextrin, HPBCD 10% in purified water, 25° C.): 4860 µg/mL (≈ 16.6 mM)
solubility (10% Poloxamer 118 in purified water, 25 °C, aqueous with cosolvent or surfactant or cyclodextrin, Poloxamer 118 10%, 25° C.): 430 µg/mL (≈ 1.47 mM)
solubility (10% Polysorbate 20 in purified water, 25 °C, aqueous with cosolvent or surfactant or cyclodextrin, Polysorbate 20 10%, 25° C.): 3660 µg/mL (≈ 12.5 mM)
solubility (10% Polysorbate 80 in purified water, 25 °C, aqueous with cosolvent or surfactant or cyclodextrin, Polysorbate 80 10%, 25° C.): 3120 µg/mL (≈ 10.7 mM)
Enhancement (10% glycofurol, 40% PEG 400): 33.6
solubility (20% HPBCD in purified water, 25 °C, aqueous with cosolvent or surfactant or cyclodextrin, HPBCD 20% in purified water, 25° C.): 9960 µg/mL (≈ 34.1 mM)
solubility (25% HPBCD in purified water, 25 °C, aqueous with cosolvent or surfactant or cyclodextrin, HPBCD 25% in purified water, 25° C.): 11500 µg/mL (≈ 39.3 mM)
solubility (25% HPGCD in purified water, 25 °C, aqueous with cosolvent or surfactant or cyclodextrin, HPGCD 25% in purified water, 25° C.): 272 µg/mL (≈ 0.931 mM)
solubility (25% SBEBCD in purified water, 25 °C, aqueous with cosolvent or surfactant or cyclodextrin, SBEBCD 25% in purified water, 25° C.): 11000 µg/mL (≈ 37.8 mM)
solubility (25% Solutol HS 15 in purified water, 25 °C, aqueous with cosolvent or surfactant or cyclodextrin, Solutol HS 15 25%, 25° C.): 6550 µg/mL (≈ 22.4 mM)
solubility (30% Solutol HS 15 in purified water, 25 °C, aqueous with cosolvent or surfactant or cyclodextrin, Solutol HS 15 30%, 25° C.): 7460 µg/mL (≈ 25.5 mM)
solubility (40% HPBCD in purified water, 25 °C, aqueous with cosolvent or surfactant or cyclodextrin, HPBCD 40% in purified water, 25° C.): 12800 µg/mL (≈ 43.7 mM)
solubility (50% PEG 400 in purified water, 25 °C, aqueous with cosolvent or surfactant or cyclodextrin, PEG 400 50%, 25° C.): 7660 µg/mL (≈ 26.2 mM)
Enhancement (50% Polysorbate 20/50% EtOH): 89.6
solubility (50% Polysorbate 20/50% EtOH, 25 °C, organic solvent or mixture, 50% Polysorbate 20/50% EtOH, 25° C.): 16300 µg/mL (≈ 55.9 mM)
Enhancement (50% Polysorbate 80/50% EtOH): 102.2
solubility (50% Polysorbate 80/50% EtOH, 25 °C, organic solvent or mixture, 50% Polysorbate 80/50% EtOH, 25° C.): 18600 µg/mL (≈ 63.7 mM)
solubility (50% ethanol in purified water, 25 °C, aqueous with cosolvent or surfactant or cyclodextrin, Ethanol 50%, 25° C.): 5720 µg/mL (≈ 19.6 mM)
solubility (50% glycerin formal in purified water, 25 °C, aqueous with cosolvent or surfactant or cyclodextrin, Glycerin Formal 50%, 25° C.): 3450 µg/mL (≈ 11.8 mM)
solubility (50% glycofurol in purified water, 25 °C, aqueous with cosolvent or surfactant or cyclodextrin, Glycofurol 50%, 25° C.): 9850 µg/mL (≈ 33.7 mM)
solubility (50% propylene glycol in purified water, 25 °C, aqueous with cosolvent or surfactant or cyclodextrin, Propylene glycol 50%, 25° C.): 2240 µg/mL (≈ 7.67 mM)
solubility (100% DMA (N,N-dimethylacetamide), 25 °C, organic solvent or mixture, DMA 100%, 25° C.): 71500 µg/mL (≈ 245 mM)
solubility (100% Polysorbate 20, 25 °C, organic solvent or mixture, Polysorbate 20 100%, 25° C.): 10800 µg/mL (≈ 37.2 mM)
solubility (100% Polysorbate 80, 25 °C, organic solvent or mixture, Polysorbate 80 100%, 25° C.): 16900 µg/mL (≈ 57.8 mM)
solubility (100% benzyl alcohol, 25 °C, organic solvent or mixture, Benzyl alcohol 100%, 25° C.): 15500 µg/mL (≈ 53.1 mM)
SMILES: NC(=O)c1ccc(I)c([N+](=O)[O-])c1 [BA, 4-iodo-3-nitrobenzamide]
